The term IC50 denotes the concentration needed to halve the response being measured.

Where only a bound is given, the exact number is not on record here.

Holding throughout (format): functional, cell-based
Assay [1] relates to HCT-116. In words: Cytotoxicity against vinblastine-resistant human HCT116 cells after 72 hrs. The following applies: HCT-116, 72 h.
Another assay concerns L1210. In words: Cytotoxicity against mouse L1210 cells after 72 hrs. The following applies: L1210, 72 h.
Assay [2] concerns HCT-116. Put plainly: Cytotoxicity against human HCT116 cells after 72 hrs. The following applies: HCT-116, 72 h.

With `CCC1=C[C@@H]2CN(CCc3c([nH]c4ccccc34)[C@@](C(N)=O)(c3cc4c(cc3OC)N(C)C3[C@]45CCN4CC=C[C@@](CC)([C@@H](OC(C)=O)[C@]3(O)C(=O)OC)[C@H]45)C2)C1` (some centres undefined), the IC50 in the assay on HCT-116 [1], in the assay with L1210 and in the assay with HCT-116 [2] was > 10 µM throughout.
Regarding `CC[C@]1(O)C[C@@H]2CN(CCc3c([nH]c4ccccc34)[C@@](C(=O)OC)(c3cc4c(cc3OC)N(C)[C@H]3[C@@](O)(C(=O)OC)[C@H](OC(C)=O)[C@]5(CC)C=CCN6CC[C@]43[C@@H]65)C2)C1` [VINBLASTINE], the values for the IC50 in the assay with HCT-116 [1] and in the assay on L1210 were 0.6 µM and 0.006 µM, respectively.
Regarding `CCC1=C[C@@H]2CN(CCc3c([nH]c4ccccc34)[C@@](C(=O)OC)(c3cc4c(cc3OC)N(C)C3[C@]45CCN4CC=C[C@@](CC)([C@@H](OC(C)=O)[C@]3(O)C(=O)OC)[C@H]45)C2)C1` (some centres undefined), the 50% inhibitory concentration (IC50) was 0.6 µM in the assay with HCT-116 [1], 0.065 µM in the assay with L1210 and 0.075 µM with HCT-116 [2].
The like results for `CC[C@]1(O)C[C@@H]2CN(CCc3c([nH]c4ccccc34)[C@@](C#N)(c3cc4c(cc3OC)N(C)C3[C@]45CCN4CC=C[C@@](CC)([C@@H](OC(C)=O)[C@]3(O)C(=O)OC)[C@H]45)C2)C1` (some centres undefined) were, in that order, 7.4 µM, 0.63 µM and 0.67 µM.
For `CC[C@]1(O)C[C@@H]2CN(CCc3c([nH]c4ccccc34)[C@@](CCO)(c3cc4c(cc3OC)N(C)C3[C@]45CCN4CC=C[C@@](CC)([C@@H](OC(C)=O)[C@]3(O)C(=O)OC)[C@H]45)C2)C1` (some centres undefined) the same measures were > 10 µM, 6.5 µM and 5.8 µM.
For the molecule `CCOC(=O)[C@]1(c2cc3c(cc2OC)N(C)C2[C@]34CCN3CC=C[C@@](CC)([C@@H](OC(C)=O)[C@]2(O)C(=O)OC)[C@H]34)C[C@@H]2C=C(CC)CN(CCc3c1[nH]c1ccccc31)C2` (some centres undefined), the 50% inhibitory concentration (IC50) in the assay with HCT-116 [1] was 4.1 µM; in the assay with L1210, 0.62 µM; in the assay with HCT-116 [2], 0.64 µM.
`CCC1=C[C@@H]2CN(CCc3c([nH]c4ccccc34)[C@@](C=O)(c3cc4c(cc3OC)N(C)C3[C@]45CCN4CC=C[C@@](CC)([C@@H](OC(C)=O)[C@]3(O)C(=O)OC)[C@H]45)C2)C1` (some centres undefined): the half-inhibitory concentration (IC50) in the assay on HCT-116 [1] was > 10 µM; with L1210 it was 6.3 µM; in the assay on HCT-116 [2] it was 7 µM.
For `CC[C@]1(O)C[C@@H]2CN(CCc3c([nH]c4ccccc34)[C@@](C(N)=O)(c3cc4c(cc3OC)N(C)C3[C@]45CCN4CC=C[C@@](CC)([C@@H](OC(C)=O)[C@]3(O)C(=O)OC)[C@H]45)C2)C1` (some centres undefined) the same measures were > 10 µM, > 10 µM and > 10 µM.
For `CCOC(=O)[C@]1(c2cc3c(cc2OC)N(C)C2[C@]34CCN3CC=C[C@@](CC)([C@@H](OC(C)=O)[C@]2(O)C(=O)OC)[C@H]34)C[C@H]2CN(CCc3c1[nH]c1ccccc31)C[C@](O)(CC)C2` (some centres undefined) the same measures were 0.83 µM, 0.06 µM and 0.07 µM.
The like results for `CCC1=C[C@@H]2CN(CCc3c([nH]c4ccccc34)[C@@](C#N)(c3cc4c(cc3OC)N(C)C3[C@]45CCN4CC=C[C@@](CC)([C@@H](OC(C)=O)[C@]3(O)C(=O)OC)[C@H]45)C2)C1` (some centres undefined) were, in that order, 6.8 µM, 6.5 µM and 6.1 µM.

The values are drawn from ChEMBL document CHEMBL1268962 (Bioorg Med Chem Lett, 2010).
